Laboratory results from PubChem BioAssay (NCI).
Where “and” joins values, the source holds several entries; their conditions need not be identical. Equal values may be shown once.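 These data come from cells grown in 96-well plates and exposed to compound for 48 hours at five concentrations. The concentration for 50% growth inhibition is given as GI50. The concentration for full growth arrest is given as TGI.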

Tests used:
Experiment in all cases: NCI tumour cell line growth inhibition, 48 h
MOLT-4 leukemia = test system: MOLT-4 leukemia
OVCAR-5 ovarian = test system: OVCAR-5 ovarian
NCI-H460 lung = test system: NCI-H460 lung
MDA-MB-231 breast = test system: MDA-MB-231 breast
HS 578T breast = test system: HS 578T breast
SNB-75 CNS = test system: SNB-75 CNS
SF-539 CNS = test system: SF-539 CNS
UO-31 renal = test system: UO-31 renal
HL-60(TB) leukemia = test system: HL-60(TB) leukemia
LOX IMVI melanoma = test system: LOX IMVI melanoma

| Compound | GI50 (MOLT-4 leukemia) [µM] | TGI (MOLT-4 leukemia) [µM] | GI50 (OVCAR-5 ovarian) [µM] | TGI (OVCAR-5 ovarian) | GI50 (NCI-H460 lung) [µM] | TGI (NCI-H460 lung) [µM] | GI50 (MDA-MB-231 breast) [µM] | TGI (MDA-MB-231 breast) [µM] | GI50 (HS 578T breast) [µM] | TGI (HS 578T breast) [µM] | GI50 (SNB-75 CNS) [µM] | TGI (SNB-75 CNS) | GI50 (SF-539 CNS) [µM] | TGI (SF-539 CNS) [µM] | GI50 (UO-31 renal) [µM] | TGI (UO-31 renal) [µM] | GI50 (HL-60(TB) leukemia) [µM] | TGI (HL-60(TB) leukemia) [µM] | TGI (LOX IMVI melanoma) [µM] | GI50 (LOX IMVI melanoma) [µM] |
| --- | --- | --- | --- | --- | --- | --- | --- | --- | --- | --- | --- | --- | --- | --- | --- | --- | --- | --- | --- | --- |
| COc1ccc(-c2nn(-c3ccc(NC(=O)Nc4ccc(Cl)c(C(F)(F)F)c4)cc3)cc2-c2ccncc2)cc1Cl | 1.7 | 6.75 | 1.88 | 5.96 µM | 1.4 | 3.36 | 1.2 | 2.67 | 1.1 | 4.22 | 1.36 | 7.86 µM | 1.53 | 4 | 1.1 | 3.05 | 2.13 | 5.75 | – | – |
| O=c1ccc2ccc(O)cc2o1 | – | > 100 | – | > 100 µM | – | – | – | > 100 | – | > 100 | – | > 100 µM | – | > 100 | – | > 100 | – | > 100 | > 100 | – |
| CC(=O)OC1COC(Nc2nc(N)n(C)c(=O)c2N=O)C(OC(C)=O)C1OC(C)=O (centres undefined) | – | > 10 | – | > 10 µM | – | > 10 | – | > 10 | – | > 10 | – | > 10 µM | – | > 10 | – | – | – | > 10 | > 10 | – |
| Cc1sc2nc3n(c(=O)c2c1C)N=CN(c1ccc(F)cc1)C3 | – | > 100 | – | > 100 µM | – | > 100 | – | > 100 | – | 79.2 | – | > 100 µM | – | – | – | > 100 | – | – | > 100 | – |
| O=C1CC2CCC(C1)S2=O (centres undefined) | – | > 100 | – | – | – | > 100 | – | > 100 | – | > 100 | – | > 100 µM | – | > 100 | – | > 100 | – | > 100 | > 100 | – |
| Cc1ccc(-n2cc([Si](C)(C)C)nn2)s1 | – | – | – | > 100 µM | – | > 100 | – | > 100 | – | > 100 | – | – | – | > 100 | – | > 100 | – | – | > 100 | – |
| CC1=NN(c2nc(N)nc(CF)n2)C(C)(C)C1 | – | > 100 | – | – | – | > 100 | – | > 100 | – | > 100 | – | > 100 µM | – | > 100 | – | > 100 | – | > 100 | > 100 | – |
| NCCCNCCCCN1CC1 | – | – | – | > 33.8 µM | – | > 100 | – | – | – | 66.5 | – | 4.3 µM | – | 3.4 | – | > 100 | – | – | 11.8 | – |
| CCC[C@@H]1C(=O)N=C(N)N1C(=O)OCc1ccccc1 | – | > 100 | – | > 100 µM | – | > 100 | – | > 100 | – | > 100 | – | > 100 µM | – | – | – | > 100 | – | > 100 | > 100 | – |
| CCCC(=O)[O-].N.N.N.N.N.[Co+3].[O-][Cl+3]([O-])([O-])[O-] | – | > 100 | – | > 100 µM | – | > 100 | – | – | – | – | – | > 100 µM | – | > 100 | – | > 100 | – | – | > 100 | – |
| COC(=O)C1=C(C(=O)OC)SC2(S1)C(C(=O)OC)=C(C(=O)OC)Sc1c2ssc1=NC(C)(C)C | – | 2.16 | – | 3.68 µM | – | – | – | 3.44 | – | 18.5 | – | 2.92 µM | – | 2.69 | – | 3.34 | – | 4.73 | 2.4 | – |
| O=c1ccc2nc(-c3ccccn3)nn(-c3ccccc3)c-2c1 | – | – | 4.99 | 18.1 µM | 15.5 | 32.8 | 1.92 | 3.68 | 2.85 | 35.9 | 11.4 | 23.5 µM | 6.93 | 19.8 | 1.46 | 2.82 | 0.64 | 3.11 | 3.44 | 1.78 |
| CCN1CCC(O)(/C=C/c2ccc(OC)cc2)C(C(=O)/C=C/c2ccc(OC)cc2)C1 (centres undefined) | – | 12.4 | – | 28.8 µM | – | 27.6 | – | 17.5 | – | – | – | – | – | 27.8 | – | 21.5 | – | 52.2 | 8.82 | – |
| C[N+](C)(CCNC(=O)c1cccc2cc3ccccc3nc12)Cc1ccc([N+](=O)[O-])s1 | – | > 25 | – | > 25 µM | – | – | – | > 25 | – | > 25 | – | > 25 µM | – | – | – | > 25 | – | > 25 | > 25 | – |
| CCOC(=O)c1c(-c2cccc3ccccc23)c(C#N)c(=S)n(C2OC(COC(C)=O)C(OC(C)=O)C(OC(C)=O)C2OC(C)=O)c1C (centres undefined) | – | > 100 | – | > 100 µM | – | > 100 | – | > 100 | – | – | – | 87.9 µM | – | > 100 | – | 3.49 | – | > 100 | > 100 | – |
| COc1ccc(C2=NN=C3C(c4ccccc4)=Nc4ccccc4N3C2)cc1 | – | 33.4 | – | > 100 µM | – | > 100 | – | > 100 | – | – | – | – | – | > 100 | – | 49.8 | – | 38.5 | > 100 | – |
| CCOC(=O)[C@@H]1ON2OC(OC3CCCC3(c3ccccc3)c3ccccc3)C(OC(C)=O)[C@H]3OC(=O)[C@@H]1C32 (some centres undefined) | – | > 100 | – | – | – | > 100 | – | > 100 | – | > 100 | – | > 100 µM | – | > 100 | – | > 100 | – | > 100 | 60.3 | – |
| COC(=O)C(NC(=O)c1ccccc1)C(c1ccc(Cl)cc1)P(=O)(OC)OC (centres undefined) | – | > 100 | – | > 100 µM | – | > 100 | – | – | – | – | – | > 100 µM | – | > 100 | – | > 100 | – | > 100 | > 100 | – |
| C/C=C(/C)C(=O)O[C@H]1[C@H](O)CC(c2ccc3c(c2O)C(O)=C2C(=O)C4(OC)C(O)=C(C(N)=O)C(=O)[C@H](CC(=O)c5ccccc5O)C4CC2[C@@]3(C)OC)O[C@@H]1C (some centres undefined) | – | 10.5 | – | 2.02 µM and 0.916 µM | – | – | – | 1.35 | – | – | – | 2.05 µM and 0.705 µM | – | 0.101 | – | 2.34 | – | – | 0.132 | – |
| COC1OC2=CCC3C(=O)NC(=O)C3C2[C@H](OCc2ccccc2)C1OCc1ccccc1 (some centres undefined) | – | – | – | 29.1 µM | – | 32.6 | – | – | – | – | – | 31.5 µM | – | 31 | – | 32.2 | – | – | 3.22 | – |
| CN1CCN(C2=CC(=O)c3c(O)ccc(O)c3C2=O)CC1 | – | 4.75 | – | – | – | 3.52 | – | 3.1 | – | 4.1 | – | 2.97 µM | – | 2.96 | – | 2.92 | – | 0.785 | 1.79 | – |
| O=C(N/N=C/c1cc(Br)cc(Br)c1[O-])c1ccccc1O.O=C(N/N=C/c1cc(Br)cc(Br)c1[O-])c1ccccc1O.[Ni+2] | – | 15.6 | – | 1.34 µM | – | 1.66 | – | – | – | – | – | 4.9 µM | – | 0.72 | – | 8.5 | – | 0.346 | 1.84 | – |
